Reference: PubChem BioAssay (NCI)
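1) Cells in 96-well plates. 2) Compound, 48 h, 5 concentrations. 3) Linear interpolation between surrounding doses. 4) Unreached endpoint = highest concentration. GI50: concentration for 50% inhibition of growth. The concentration for full growth arrest is given as TGI.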

Legend:
Assay in all cases: NCI anticancer screen, dose series, 48 h
[1] = system: NCI-H460 lung
[2] = system: NCI-H522 lung
[3] = system: NCI/ADR-RES ovarian
[4] = system: OVCAR-3 ovarian
[5] = system: OVCAR-4 ovarian
[6] = system: OVCAR-5 ovarian
[7] = system: OVCAR-8 ovarian
[8] = system: PC-3 prostate
[9] = system: RPMI-8226 leukemia
[10] = system: RXF 393 renal
[11] = system: SF-268 CNS
[12] = system: SF-539 CNS
[13] = system: SK-MEL-2 melanoma
[14] = system: SK-MEL-28 melanoma
[15] = system: SK-MEL-5 melanoma
[16] = system: SK-OV-3 ovarian
[17] = system: SN12C renal
[18] = system: SNB-19 CNS
[19] = system: SR leukemia
[20] = system: SW-620 colon
[21] = system: T-47D breast
[22] = system: TK-10 renal
[23] = system: U251 CNS
[24] = system: UACC-257 melanoma
[25] = system: UACC-62 melanoma
[26] = system: UO-31 renal

SMILES: COc1cc(C(=O)/C=C/c2cc(-c3cc(OC)c(OC)c(OC)c3)n[nH]2)cc(OC)c1OC
- GI50 [1]: 1890 nM
- TGI [1]: 4330 nM
- GI50 [2]: 521 nM
- TGI [2]: 1700 nM
- GI50 [3]: 3470 nM
- TGI [3]: 21400 nM
- GI50 [4]: 1750 nM
- TGI [4]: 3180 nM
- GI50 [5]: 1450 nM
- TGI [5]: 2760 nM
- GI50 [6]: 1640 nM
- TGI [6]: 3120 nM
- GI50 [7]: 1580 nM
- TGI [7]: 3280 nM
- GI50 [8]: 1470 nM
- TGI [8]: 3290 nM
- GI50 [9]: 318 nM
- TGI [9]: 2060 nM
- GI50 [10]: 1260 nM
- TGI [10]: 2670 nM
- GI50 [11]: 1940 nM
- TGI [11]: 4580 nM
- GI50 [12]: 1290 nM
- TGI [12]: 2830 nM
- GI50 [13]: 1960 nM
- TGI [13]: 4040 nM
- GI50 [14]: 1820 nM
- TGI [14]: 3330 nM
- GI50 [15]: 1570 nM
- TGI [15]: 2940 nM
- GI50 [16]: 3200 nM
- TGI [16]: 11100 nM
- GI50 [17]: 1470 nM
- TGI [17]: 2970 nM
- GI50 [18]: 1660 nM
- TGI [18]: 3690 nM
- GI50 [19]: 398 nM
- TGI [19]: > 100000 nM
- GI50 [20]: 1590 nM
- TGI [20]: 3080 nM
- GI50 [21]: 1130 nM
- TGI [21]: 2570 nM
- GI50 [22]: 1460 nM
- TGI [22]: 2800 nM
- GI50 [23]: 1540 nM
- TGI [23]: 2960 nM
- GI50 [24]: 1570 nM
- TGI [24]: 2990 nM
- GI50 [25]: 1780 nM
- TGI [25]: 3680 nM
- GI50 [26]: 1190 nM
- TGI [26]: 2480 nM
